≈ marks a conversion by molar mass, not a printed value.

A word on the solubility: it is how much of the substance goes into solution per volume. Low values mean a poorly soluble substance, high ones a readily soluble substance.

Data set [1] in a line: Light stability: extinction decrease after irradiation of the oxidized chromogen. It is filed as physicochemical.
Procedure: In connection with this composition portion of the invention, laboratory tests were conducted by a standard method for evaluating different chromogens.
Data set [2] in a line: Absorption wave length of the oxidized chromogen. The class given is physicochemical.
The conditions of data set [3]: background, cited from earlier work.
For data set [4] the following is noted: background, cited from earlier work. This is another data set of the same source.
Data set [5] can be described thus: Solubility of the chromogens in water / at pH 7, reduced and oxidized state. The settings on record: for solubility: pH 7, water.
The nature of data set [6]: Stability of isolated product in air. The settings on record: greyish crystal powder. It is filed as physicochemical. The protocol: d. 10 gm. of this 8,8'-bis(2-oxo-1,2,3,4,5,6-hexahydro-1-benzazocine) are refluxed for 12 hours with 200 ml. of concentrated hydrochloric acid. The solution is evaporated to a small volume, diluted with water, following which the pH is adjusted to 5 to 6 by adding concentrated sodium acetate solution.

Data set [7] in a line: Color development of chromogen-reactive-indicator composition with glucose stock solutions (glucose oxidase/peroxidase). The note with it: 0.2 mM chromogen in reagent composition.
Procedure: Glucose was used as the control or test substance to be tested for in these tests.
______________________________________
Chromogen used 0.2 mM (i.e. millimolar),
glucose oxidase 3000 units,
Stock or test solutions were prepared containing glucose in concentrations of 25, 50, 100, 200, 300, and 400 mg. per 100 ml.
Before the final determination, this thus diluted solution is diluted further 1 part to 11 with the just described chromogen reagent solution. Thereafter the development of color is measured at 450 mm.
When this particular dilution pattern is applied to the foregoing stock or test stem solutions, finally diluted solutions with the following respective glucose contents are obtained: 2.2, 4.3, 8.6, 13.0, and 17.3 mg. per liter.
The nature of data set [8]: Color stability at extinction maximum. The class given is physicochemical. The settings on record: 0.2 mM chromogen; 4 hours the longest period observed.
The mark [9] stands for this setting: 450 nm (o-tolidine 430 nm), pH value 6.5.
[10] abbreviates: Solubility at pH 7, oxidized (colored), pH 7, oxidized state.
Setting [11] is: Solubility at pH 7, reduced (uncolored), pH 7, reduced state.

On to `Cc1cc(-c2ccc(N)c(C)c2)ccc1N` [o-tolidine], for which the “Extinction decrease % after irradiation 5 min. under 10 Watt tungsten lamp” value (shortened to “Extinction decrease %”) is given as 1% in data set [1] (setting [9]) and “unstable” in data set [1] (630 nm, pH value 4.5). Also, the “Wave length range in nm” value amounted to 630 nm in data set [2] (pH value 4.5) and 430 nm in data set [2] (pH value 6.5). The “Light absorption wave length in oxidized state” value in data set [3] was “about 450 nm”. Further, in data set [3] (temporarily appearing color), the “Absorption of temporarily appearing color” value is recorded as “about 630 nm”. Besides, in data set [4] (temporarily appearing color at about 630 nm), the “Sensitivity of color to pH and temperature” value was “very sensitive to variations in pH and temperature”. The results for the solubility in data set [5] (setting [10]) and in data set [5] (setting [11]) were 7 µg/mL (≈ 33 µM) and 130 µg/mL (≈ 612 µM), respectively.

Take `Nc1ccc(-c2ccc(N)c(CCCCC(=O)O)c2)cc1CCCCC(=O)O` [Example 6, Delta,delta'-(4,4'-diamino-3,3'-biphenyl)divaleric acid]: the “Discoloration in the air” value in data set [6] is “readily discolors in the air”.

Regarding `Cl.Cl.Nc1ccc(-c2ccc(N)c(OCCCC(=O)O)c2)cc1OCCCC(=O)O` [Example 1(d), Gamma, gamma'-(4,4'-diamino-3,3'-biphenyldioxy)dibutyric acid dihydrochloride], the Precipitation of chromogen entry in data set [7] is on record as “no precipitation of chromogen occurred”. In addition, in data set [1] (setting [9]), the “Extinction decrease %” value stood at 2%. In addition, the “Color stability at extinction maximum, optional reading time” value in data set [8] is given as “up to 4 hours”. The “Wave length range in nm” value in data set [2] (pH value 6.5) was determined as 450 nm. In addition, in data set [5], the “Solubility in water (in words)” value is given as “very good”. Besides, the solubility in data set [5] (setting [10]) came out at 700 µg/mL; in data set [5] (setting [11]), 70000 µg/mL.

In the case of `COc1cc(-c2ccc(N)c(OC)c2)ccc1N` [o-dianisidine], the “Extinction decrease %” value in data set [1] (setting [9]) came out at 26%. Further, in data set [2] (pH value 6.5), the “Wave length range in nm” value amounted to 450 nm. Further, the “Light absorption wave length in oxidized state” value in data set [3] is “about 450 nm”. In data set [4] (oxidized, exposed to light), the “Decline of extinction when exposed to light” value is listed as “up to 25 per cent”. The “Sensitivity of color to light” value in data set [4] (oxidized) was “sensitive to light”. Moreover, the solubility in data set [5] (setting [10]) was 10 µg/mL (≈ 40.9 µM); in data set [5] (setting [11]), 110 µg/mL (≈ 450 µM).

For `Nc1ccc(-c2ccc(N)c(OCCCS(=O)(=O)O)c2)cc1OCCCS(=O)(=O)O` [Example 3(b), Gamma,gamma'-(4,4'-diamino-3,3'-biphenyldioxy)dipropane sulfonic acid], in data set [7], the Precipitation of chromogen entry is “no precipitation of it occurs”. Also, the “Extinction decrease %” value in data set [1] (setting [9]) came out at 2%. Also, the “Color stability at extinction maximum, optional reading time” value in data set [8] is “up to 4 hours”. In data set [2] (pH value 6.5), the “Wave length range in nm” value is 450 nm. In addition, in data set [5], the “Solubility in water (in words)” value is listed as “quite good”. The solubility stood at 120 µg/mL (≈ 261 µM) in data set [5] (setting [10]) and 12000 µg/mL (≈ 26100 µM) in data set [5] (setting [11]).

The values are drawn from patent US4008267A, “3,3'-Di(sulfonyloxy-group-containing)substituted benzidine derivatives” (AB Kabi, priority 1974, dated 1977).
